# Structures can show the parent of a compound that is named as a salt. Where two headings read alike, the source gives them in different places.
# What was measured:
# recombinant human PARP1 = recombinant human PARP1 (Homo sapiens, UniProt P09874); assay: PARP1 fluorescence polarization binding assay; details: GST-tagged PARP1 20 nM, PARP1-FL probe 3 nM
# Experimental: In some embodiments, the biological assay is described in the Examples herein. In some embodiments, the biological assay measures PARP-1 binding by way of fluorescence polarization measurements. In some embodiments, binding of a test compound to recombinant human PARP-1 reduces the amount of binding of a fluorescent probe, and consequently reduces the detected level of fluorescence polarization. In some test compound stock solutions are prepared in a solvent, e.g., DMSO, and are serially diluted into a range of concentrations, e.g., 15 concentrations, 14 concentrations, 13 concentrations, 12 concentrations, 11 concentrations, 10 concentrations, 9 concentrations, 8 concentrations, 7 concentrations, 6 concentrations, or 5 concentrations, by a dilution factor, e.g., a 10-fold dilution factor, a 9-fold dilution factor, an 8-fold dilution factor, a 7-fold dilution factor, a 6-fold dilution factor, a 5-fold dilution factor, a 4-fold dilution factor, a 3-fold dilution factor, or a 2-fold dilution factor. In some embodiments, the serial dilutions, e.g., 100 nL of serial dilution, 90 nL of serial dilution, 80 nL of serial dilution, 70 nL of serial dilution, 60 nL of serial dilution, 50 nL of serial dilution, 30 nL of serial dilution, 20 nL of serial dilution, or 10 nL of serial dilution, are added to a multi-welled plate, e.g., a 1536-well plate, a 384-well plate, or a 96-well plate. In some embodiments, PARP-1, e.g., GST-tagged PARP-1, is diluted in assay buffer, e.g., 50 μL of assay buffer, 40 μL of assay buffer, e.g., 30 μL of assay buffer, 20 μL of assay buffer, 10 μL of assay buffer, or 5 μL of assay buffer, and is added to the plate. In some embodiments, the plate is centrifuged, e.g., at 1000 rpm for 1 min, and incubated, e.g., incubated for 30 minutes at room temperature (RT). In some embodiments, a fluorescent probe, e.g., 10 μL of 6 nM PARP1-FL (TOCRIS, Cat #6461), is diluted in an assay buffer and is added to the plate. In some embodiments, the final concentrations of PARP-1 and fluorescent probe are 20 nM and 3 nM, respectively, in a total volume of 20 μL. In some embodiments, the plate is centrifuged, e.g., at 1000 rpm for 1 minute, and the assay plate is incubated, e.g., for 4 h at RT. In some embodiments, the samples in each well are read using a plate reader, e.g., an Envision instrument using excitation=480 nm, and emission wavelength=FITC FP-P pol 535 nm & FITC FP-S pol 535 nm). In some embodiments, percent inhibition is calculated from mP values using Inhibition (%)=[1−(mPc−mPL)/(mPH−mPL)]×100%, where mPc, mPL, and mPH are the mP values of test compound, Low controls, and High controls, respectively. In some embodiments, binding IC50 values are calculated using XLFit (equation 201: y=A+((B−A)/(1+((x/C)^D))), where A=bottom, B=top, C=IC50, and D=slope) with a floating top and bottom for curves.
# Compounds of the present disclosure were tested in a PARP1 fluorescence polarization binding assay at Pharmaron (Beijing, P.R. China). In this biochemical assay, binding of test compound to recombinant human PARP1 reduces the amount of binding of a fluorescent probe, and consequently reduces the detected level of fluorescence polarization. Test compound stock solutions were prepared in DMSO and then serially diluted into 10 concentrations by 3-fold dilution in a 384-well plate using a TECAN EVO200. Alternatively, a single concentration was prepared. 60 nL of each dilution was transferred to the plate using an Echo550 (Labcyte), and then 10 μL 40 nM GST-tagged PARP1 (BPS Bioscience, Cat #80501), diluted in assay buffer (50 mM Tris pH 8.0, 0.001% Triton X-100, 10 mM MgCl2, 150 mM NaCl), was added to the plate. After a centrifugation at 1000 rpm for 1 min, the assay plate was incubated for 30 min at RT. 10 μL 6 nM PARP1-FL (TOCRIS, Cat #6461), diluted using assay buffer, was then added to the plate. The final concentrations of PARP1 and PARP1-FL were 20 nM and 3 nM, respectively, in a total volume of 20 μL. […]
# [1] = test system: DLD-1 wild-type colorectal adenocarcinoma cells; assay: Cell viability assay (Cell Titer-Glo, 7 days), DLD-1 wild-type; format: cell-based; details: Homo sapiens, 168 h, DLD-1 wild-type cells, read-out: DLD-1 wild-type % inh at 10 μM
# From the text: (§1) In some embodiments, the biological assay measures the effects that compounds of the present disclosure may have on the viability of cells, e.g., the viability of cancer cells. In some embodiments, DLD-1 wild-type and DLD-1 BRCA2(−/−) colorectal adenocarcinoma cells, an isogenic pair of cell lines differing in the presence and absence, respectively, of both BRCA2 alleles, are used to measure the effect of the disclosed compounds on the viability of cancer cells. In some embodiments, the cells are harvested during the logarithmic growth period, counted, and seeded at a specified count in the wells of a 96- or 384-well cell culture plate. In some embodiments, after seeding, the cells are incubated, e.g., at 37° C., 5% CO2 overnight. In some embodiments, the cells are treated with compounds, e.g., with serially diluted test compounds at 8-11 concentrations within a desired concentration range, e.g., from 1 nM-10 μM, for the generation of dose-response curves. In some embodiments, the plate is further incubated, e.g., for another 3-7 days in a humidified incubator at 37° C. and 5% CO2. In some embodiments, cell viability is assessed by luminescence measurement after addition of Cell Titer-Glo reagent (Promega, Madison, Wis.) according to the manufacturer's instructions. In some embodiments, cell viability IC50 values are calculated using XLFit, equation 201: y=A+((B−A)/(1+((x/C)^D))), where A=bottom, B=top, C=IC50, and D=slope. In some embodiments, the effects of the test compounds on the viability of other cell lines such as MDA-MB-436, MDA-MB-231, SUM149PT, HCC1395, and UWB1.289 are determined in an analogous method.
# (§2) Compounds of the present disclosure were tested for their effects on the viability of cancer cells. DLD-1 wild-type and DLD-1 BRCA2(−/−) colorectal adenocarcinoma cells, an isogenic pair of cell lines differing in the presence and absence, respectively, of both BRCA2 alleles, were used. The cells were harvested during the logarithmic growth period, counted, and seeded at 50 cells/well for DLD-1 wild-type and 200 cells/well for DLD-1 BRCA2(−/−) in a 384-well cell culture plate. After seeding, cells were incubated at 37° C., 5% CO2 overnight. Cells were treated with serially diluted test compounds at 10 concentrations (e.g., from 1.5 nM-30 μM) for generation of dose response curves, or at a single concentration. The plate was further incubated for another 7 days in a humidified incubator at 37° C. and 5% CO2. Cell viability was assessed by luminescence measurement after addition of Cell Titer-Glo reagent (Promega, Madison, Wis.) according to the manufacturer's instructions. Cell viability IC50 values were calculated using XLFit, equation 201. y=A+((B−A)/(1+((x/C)^D))), where A=bottom, B=top, C=IC50, and D=slope. IC50 values are shown in Table B and are presented in ranges, in which “+++”<300 nM, 300 nM≤“++”<3000 nM, and “+”≥3000 nM. Values for percent inhibition at 10 μM are also shown in Table B and are presented in ranges, in which “***”≥67%, 33%: “**”≤67%, and “*”<33%. Effects of the test compounds on the viability of other cell lines such as MDA-MB-436, MDA-MB-231, SUM149PT, HCC1395, and UWB1.289 are determined in an analogous method.
# recombinant human PARP2 = recombinant human PARP2 (Homo sapiens, UniProt Q9UGN5); assay: PARP2 fluorescence polarization binding assay; details: read-out: PARP2 % inh at 10 μM
# Sequence of recombinant human PARP2 (Q9UGN5 whole entry): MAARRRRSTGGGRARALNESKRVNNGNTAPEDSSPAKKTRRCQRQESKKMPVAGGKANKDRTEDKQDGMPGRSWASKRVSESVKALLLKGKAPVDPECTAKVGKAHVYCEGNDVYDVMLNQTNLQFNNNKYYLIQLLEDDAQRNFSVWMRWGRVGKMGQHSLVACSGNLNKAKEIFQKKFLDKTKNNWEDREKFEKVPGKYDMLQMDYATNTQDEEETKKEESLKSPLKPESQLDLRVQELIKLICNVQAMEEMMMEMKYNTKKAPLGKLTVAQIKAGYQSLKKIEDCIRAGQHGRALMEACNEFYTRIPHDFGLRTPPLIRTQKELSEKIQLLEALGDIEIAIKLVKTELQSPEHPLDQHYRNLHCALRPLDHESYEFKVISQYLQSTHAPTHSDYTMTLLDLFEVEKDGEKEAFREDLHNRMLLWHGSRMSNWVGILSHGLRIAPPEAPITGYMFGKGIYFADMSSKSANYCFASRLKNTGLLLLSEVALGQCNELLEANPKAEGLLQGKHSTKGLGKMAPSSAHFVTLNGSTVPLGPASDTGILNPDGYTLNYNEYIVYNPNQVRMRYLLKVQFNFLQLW
# [2] = test system: DLD-1 BRCA2(−/−) colorectal adenocarcinoma cells; assay: Cell viability assay (Cell Titer-Glo, 7 days), DLD-1 BRCA2(−/−); format: cell-based; details: Homo sapiens, 168 h, DLD-1 BRCA2(−/−) cells
# From the text: as §1, §2
# [3] = percent inhibition at 10 μM, fluorescence polarization, GST-tagged PARP2 20 nM, PARP1-FL probe 3 nM
# Sequence of recombinant human PARP1 (P09874 whole entry): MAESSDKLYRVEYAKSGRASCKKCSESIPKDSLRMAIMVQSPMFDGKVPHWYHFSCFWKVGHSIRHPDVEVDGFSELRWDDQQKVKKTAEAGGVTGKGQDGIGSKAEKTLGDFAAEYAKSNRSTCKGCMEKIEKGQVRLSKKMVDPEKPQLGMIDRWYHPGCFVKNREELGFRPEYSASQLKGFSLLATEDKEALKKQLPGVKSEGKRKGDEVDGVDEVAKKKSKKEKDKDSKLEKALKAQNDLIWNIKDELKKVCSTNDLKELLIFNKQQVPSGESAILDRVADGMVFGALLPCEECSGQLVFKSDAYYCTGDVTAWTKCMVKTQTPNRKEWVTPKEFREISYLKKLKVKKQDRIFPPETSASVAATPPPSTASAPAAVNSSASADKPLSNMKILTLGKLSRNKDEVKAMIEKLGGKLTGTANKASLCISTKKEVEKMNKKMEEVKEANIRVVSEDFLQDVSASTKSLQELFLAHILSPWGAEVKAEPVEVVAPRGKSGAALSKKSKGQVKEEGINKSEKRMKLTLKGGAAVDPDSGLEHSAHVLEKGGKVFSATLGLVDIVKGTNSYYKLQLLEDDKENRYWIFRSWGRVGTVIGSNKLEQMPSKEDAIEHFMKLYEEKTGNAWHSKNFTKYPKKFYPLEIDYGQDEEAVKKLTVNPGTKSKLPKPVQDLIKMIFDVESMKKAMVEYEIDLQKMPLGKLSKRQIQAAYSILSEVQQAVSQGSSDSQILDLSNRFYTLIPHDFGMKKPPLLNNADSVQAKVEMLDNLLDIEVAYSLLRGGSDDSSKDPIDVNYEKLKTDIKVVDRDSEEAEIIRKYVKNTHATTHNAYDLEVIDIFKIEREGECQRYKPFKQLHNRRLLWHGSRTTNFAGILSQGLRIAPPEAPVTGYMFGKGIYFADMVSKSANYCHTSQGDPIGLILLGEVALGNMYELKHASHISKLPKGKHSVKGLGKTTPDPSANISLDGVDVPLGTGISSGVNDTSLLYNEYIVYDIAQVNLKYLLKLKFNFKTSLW
SMILES,IC50 (recombinant human PARP1) [nM],inhibition at 10 µM [1] [%],inhibition at 10 µM (recombinant human PARP2; [3]) [%],IC50 [2] [nM],inhibition at 10 µM (recombinant human PARP2) [%]
"CCNC(=O)Nc1cc(CN2CCN(c3ccc(C(=O)NC)cc3F)CC2)ccn1 [Compound 31, 4-(4-((2-(3-ethylureido)pyridin-4-yl)methyl)piperazin-1-yl)-3-fluoro-N-methylbenzamide]",< 100,< 33,< 33,300 to 3000,–
"CNC(=O)Nc1cc(CN2CCN(c3ccc(C(=O)NC)nc3C)CC2)ccn1 [Compound 42, N,6-dimethyl-5-(4-((2-(3-methylureido)pyridin-4-yl)methyl)piperazin-1-yl)picolinamide trifluoroacetate]",< 100,< 33,–,< 300,< 33
"CNC(=O)c1ccc(N2CCN(Cc3ccnc(NC(=O)NC4CC4)c3)CC2)c(C)n1 [Compound 46, 5-(4-((2-(3-cyclopropylureido)pyridin-4-yl)methyl)piperazin-1-yl)-N,6-dimethylpicolinamide]",< 100,< 33,< 33,< 300,–
"CNC(=O)c1ccc(N2CCN(Cc3ccnc(NC(=O)NCC(F)(F)F)c3)CC2)c(C)n1 [Compound 50, N,6-dimethyl-5-(4-((2-(3-(2,2,2-trifluoroethyl)ureido)pyridin-4-yl)methyl)piperazin-1-y) picolinamide trifluoroacetate]",< 100,< 33,< 33,< 300,–
"CCNC(=O)Nc1cc(CN2CCN(c3ccc(C(=O)NC)nc3C)CC2)c(C)cn1 [Compound 70, 5-(4-((2-(3-ethylureido)-5-methylpyridin-4-yl)methyl)piperazin-1-yl)-N,6-dimethylpicolinamide formate]",< 100,< 33,–,< 300,< 33
"CCNC(=O)Nc1nccc(CN2CCN(c3ccc(C(=O)NC)nc3F)CC2)c1F [Compound 81, 5-(4-((2-(3-ethylureido)-3-fluoropyridin-4-yl)methyl)piperazin-1-yl)-6-fluoro-N-methylpicolinamide]",< 100,< 33,< 33,< 300,–
"CCNC(=O)Nc1nccc(CN2CCN(c3ccc(C(=O)NC)nc3C)CC2)c1F [Compound 82, 5-(4-((2-(3-ethylureido)-3-fluoropyridin-4-yl)methyl)piperazin-1-yl)-N,6-dimethylpicolinamide]",< 100,< 33,< 33,< 300,–
"CCCC(=O)Nc1cc(CN2CCN(c3ccc(C(=O)NC)nc3C)CC2)ccn1 [Compound 161, 5-(4-((2-butyramidopyridin-4-yl)methyl)piperazin-1-y)-N,6-dimethylpicolinamide]",100 to 3000,< 33,< 33,300 to 3000,–
"CCNC(=O)Nc1cccc(CN2CCN(c3ccc(C(=O)NC)nc3C)CC2)c1 [Compound 202, 5-(4-(3-(3-ethylureido)benzyl)piperazin-1-yl)-N,6-dimethyl picolinamide formate]",100 to 3000,< 33,< 33,≥ 3000,–
"CCNC(=O)Nc1cc(CN2CCN(c3ccc(C(=O)NC)nc3F)CC2)ncn1 [Compound 229, 5-(4-((6-(3-ethylureido)pyrimidin-4-yl)methyl)piperazin-1-yl)-6-fluoro-N-methylpicolinamide formate]",< 100,< 33,–,< 300,< 33
"CCNC(=O)Nc1cc(CN2CCN(c3ccc(C(=O)NC)nc3C)CC2)ncn1 [Compound 230, 5-(4-((6-(3-ethylureido)pyrimidin-4-yl)methyl)piperazin-1-yl)-N,6-dimethylpicolinamide formate]",< 100,< 33,–,< 300,< 33
"CCNC(=O)Nc1ncc(CN2CCN(c3ccc(C(=O)NC)nc3C)CC2)s1 [Compound 242, 5-(4-((2-(3-ethylureido)thiazol-5-yl)methyl)piperazin-1-yl)-N,6-dimethylpicolinamide trifluoroacetate]",< 100,< 33,–,300 to 3000,< 33

# Source: US20240343710A1, “HETEROCYCLIC COMPOUNDS AND METHODS OF USE THEREOF” (1cBio, Inc., priority 2023, published 2024)
